From patent US20260041089A1, “PLANT BIOSTIMULANT AND METHODS OF MAKING AND USING SAME” (Solugen, Inc., priority 2022, published 2026) come the findings set out here.

The test concerns microgreens. Nature of the test: Radish microgreens growth under controlled pH 5, 1% solutions (Example 2). The format is in vivo. Particulars: for germination rate / root hair development: Day 2; for Plant dry weight: harvest Day 8, dried 3 days. Here is the method: The biostimulant effect of a PBC under controlled pH and composition conditions was investigated. Particularly, a second batch of testing was performed to verify that biostimulant effect observed in Example 1 was not an artifact of differing pH or composition. In this set, samples having a controlled yet differing compositions were compared. The first sample set comprised the sugar sucrose while the second sample comprised citric acid. Citric acid was reported to promote seed germination, all under the same pH. Therefore, solutions of 1% citric acid, sucrose, and a PBC were prepared and adjusted to a pH of 5. Two pots were filled with 150 g of each solution. About 200 seeds were placed on top of each soaked growing mats. This second batch was left indoors at room temperature for 8 days.
Microgreens were harvested on Day 8. They were then dried for 3 days, and the dry weights were recorded.

Where [1] appears, read: 1% solution, pH 5, harvest Day 8.

Structures are written as SMILES. Several values for one entry are separate records, joined by “and”; a condition that tells them apart may be missing. Equal entries are not always repeated.

With `O=C(O)CC(O)(CC(=O)O)C(=O)O` [Citric Acid, citric acid], the root hair development result is on record as “minimal root hair development”. Where the note is “1% solution, pH 5”, the germination rate amounted to 100%; the Plant dry weight is 1.99 g and 1.81 g. Moreover, the “Length of Root” value under setting [1] is 0.82 ± 0.25 cm and 0.71 ± 0.22 cm. Further, the “overall growth at harvest (Table 2 summary)” value (1 wt. %, Day 8) was “least overall growth in every parameter considered”. The growth observation result (Day 4) was “stunted growth with no stem or root hair development”. For the setting “Day 7”, the growth observation entry was “no stem development and poor overall growth”.
In the case of `OC[C@H]1O[C@@](CO)(O[C@H]2O[C@H](CO)[C@@H](O)[C@H](O)[C@H]2O)[C@@H](O)[C@@H]1O` [Sucrose, sucrose], the root hair development entry is “most root hair development”. Besides, for the setting “1% solution, pH 5”, the germination rate was 99%; the Plant dry weight was 3.0 g and 2.29 g. Moreover, under setting [1], the “Length of Root” value is 2.61 ± 0.43 cm and 2.49 ± 1.0 cm; the “Length of Stem” value was 3.86 ± 1.10 cm and 4.27 ± 1.03 cm. The leaf development result (Day 3) is “most leaf development”. The growth observation result (Day 7) is recorded as “healthy leaf growth”.
